Measurements as given in ChEMBL document CHEMBL3856204, “Chiral 6-aryl-furo[2,3-d]pyrimidin-4-amines as EGFR inhibitors” (Eur J Med Chem, 2016).

How the values were obtained:
[1] = biological target: cAMP-dependent protein kinase catalytic subunit alpha (Homo sapiens) (UniProt P17612); assay: Inhibition of His tagged recombinant human PRKACA catalytic domain (1 to 351 residues) expressed in Escherichia coli at 500 nM by Z'-LYTE assay
[2] = biological target: Serine/threonine-protein kinase PLK1 (Homo sapiens) (UniProt P53350); assay: Inhibition of His tagged recombinant full length human PLK1 expressed in baculovirus at 500 nM by Z'-LYTE assay
[3] = biological target: Vascular endothelial growth factor receptor 1 (Homo sapiens) (UniProt P17948); assay: Inhibition of GST tagged recombinant human FLT1 cytoplasmic domain (781 to 1338 residues) expressed in baculovirus at 500 nM by Z'-LYTE assay
[4] = biological target: T1, Serine/threonine-protein kinase Nek1 (Homo sapiens) (UniProt Q96PY6); assay: Inhibition of GST tagged recombinant human NEK1 catalytic domain (1 to 505 residues) expressed in baculovirus at 500 nM by Z'-LYTE assay
T1 sequence (whole entry): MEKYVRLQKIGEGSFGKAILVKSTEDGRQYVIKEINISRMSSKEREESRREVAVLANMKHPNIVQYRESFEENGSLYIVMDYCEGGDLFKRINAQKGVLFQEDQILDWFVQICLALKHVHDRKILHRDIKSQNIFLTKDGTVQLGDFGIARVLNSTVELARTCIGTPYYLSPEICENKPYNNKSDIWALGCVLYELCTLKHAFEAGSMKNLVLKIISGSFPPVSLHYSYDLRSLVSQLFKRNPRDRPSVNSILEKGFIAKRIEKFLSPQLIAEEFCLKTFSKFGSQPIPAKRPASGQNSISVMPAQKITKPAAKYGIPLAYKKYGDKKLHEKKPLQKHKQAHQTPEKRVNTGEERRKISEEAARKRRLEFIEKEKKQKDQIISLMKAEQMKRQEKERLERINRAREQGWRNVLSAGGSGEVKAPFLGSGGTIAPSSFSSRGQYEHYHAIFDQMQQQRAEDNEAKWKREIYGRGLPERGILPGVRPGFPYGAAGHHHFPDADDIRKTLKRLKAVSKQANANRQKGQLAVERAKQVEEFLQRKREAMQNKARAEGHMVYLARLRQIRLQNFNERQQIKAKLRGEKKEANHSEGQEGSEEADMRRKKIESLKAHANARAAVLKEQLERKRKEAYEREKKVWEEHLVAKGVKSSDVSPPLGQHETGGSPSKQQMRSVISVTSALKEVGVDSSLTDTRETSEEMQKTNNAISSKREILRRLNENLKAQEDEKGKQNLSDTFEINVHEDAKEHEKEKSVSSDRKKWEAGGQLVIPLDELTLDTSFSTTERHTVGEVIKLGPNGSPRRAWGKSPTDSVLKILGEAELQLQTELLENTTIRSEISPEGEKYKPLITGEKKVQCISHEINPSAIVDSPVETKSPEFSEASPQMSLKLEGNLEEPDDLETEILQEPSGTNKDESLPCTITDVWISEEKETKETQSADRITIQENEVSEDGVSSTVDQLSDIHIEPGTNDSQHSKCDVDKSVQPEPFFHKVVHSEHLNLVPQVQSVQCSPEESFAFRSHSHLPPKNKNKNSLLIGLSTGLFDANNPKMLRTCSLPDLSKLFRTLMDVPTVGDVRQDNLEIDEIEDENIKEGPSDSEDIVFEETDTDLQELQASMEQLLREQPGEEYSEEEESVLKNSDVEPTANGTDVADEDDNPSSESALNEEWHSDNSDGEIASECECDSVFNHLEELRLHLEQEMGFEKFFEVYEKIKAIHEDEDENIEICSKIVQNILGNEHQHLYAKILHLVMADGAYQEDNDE

[5] = biological target: T2, Ephrin type-B receptor 1 (Homo sapiens) (UniProt P54762); assay: Inhibition of GST tagged recombinant human EPHB1 cytoplasmic domain (613 to 881 residues) expressed in baculovirus at 500 nM by Z'-LYTE assay
T2 sequence (whole entry): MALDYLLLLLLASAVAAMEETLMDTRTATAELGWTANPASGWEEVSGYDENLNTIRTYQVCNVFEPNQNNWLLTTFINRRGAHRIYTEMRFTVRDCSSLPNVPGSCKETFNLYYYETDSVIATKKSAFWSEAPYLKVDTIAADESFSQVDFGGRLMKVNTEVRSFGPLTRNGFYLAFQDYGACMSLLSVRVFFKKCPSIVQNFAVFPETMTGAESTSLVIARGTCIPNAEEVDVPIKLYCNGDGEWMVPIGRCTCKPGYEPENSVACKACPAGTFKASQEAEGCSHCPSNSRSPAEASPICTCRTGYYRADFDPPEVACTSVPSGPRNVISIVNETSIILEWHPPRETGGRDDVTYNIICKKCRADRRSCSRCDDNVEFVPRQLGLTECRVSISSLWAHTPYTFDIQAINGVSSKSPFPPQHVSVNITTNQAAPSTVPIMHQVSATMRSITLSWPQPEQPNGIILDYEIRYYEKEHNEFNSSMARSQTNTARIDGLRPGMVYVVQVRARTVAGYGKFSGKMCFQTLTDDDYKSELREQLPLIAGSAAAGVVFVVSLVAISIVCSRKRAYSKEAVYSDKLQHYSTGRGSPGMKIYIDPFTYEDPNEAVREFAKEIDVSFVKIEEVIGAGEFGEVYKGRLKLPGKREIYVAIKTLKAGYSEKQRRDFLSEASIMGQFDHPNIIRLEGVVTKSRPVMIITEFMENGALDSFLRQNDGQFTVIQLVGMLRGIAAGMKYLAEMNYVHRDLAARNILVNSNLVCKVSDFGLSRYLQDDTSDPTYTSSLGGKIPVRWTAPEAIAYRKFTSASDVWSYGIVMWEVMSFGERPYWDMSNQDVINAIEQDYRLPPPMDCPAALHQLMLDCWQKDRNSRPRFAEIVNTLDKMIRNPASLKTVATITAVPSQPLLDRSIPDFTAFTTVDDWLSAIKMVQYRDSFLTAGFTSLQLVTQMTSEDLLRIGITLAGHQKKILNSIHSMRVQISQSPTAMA

[6] = biological target: Tyrosine-protein kinase SYK (Homo sapiens) (UniProt P43405); assay: Inhibition of recombinant full length human N-terminal GST-tagged SYK expressed in baculovirus at 500 nM by Z'-LYTE assay
[7] = biological target: Mitogen-activated protein kinase 8 (Homo sapiens) (UniProt P45983); assay: Inhibition of His tagged recombinant full length human JNK1 expressed in baculovirus at 500 nM by Z'-LYTE assay
[8] = biological target: Glycogen synthase kinase-3 beta (Homo sapiens) (UniProt P49841); assay: Inhibition of His tagged recombinant full length human GSK3B expressed in baculovirus at 500 nM by Z'-LYTE assay
[9] = biological target: Tyrosine-protein kinase Fer (Homo sapiens) (UniProt P16591); assay: Inhibition of recombinant human GST-tagged FER (541 to 822 residues) expressed in baculovirus at 500 nM by Z'-LYTE assay- tagged
Tyrosine-protein kinase Fer (Homo sapiens), sequence (P16591 whole entry, looked up, the tested form may be a part): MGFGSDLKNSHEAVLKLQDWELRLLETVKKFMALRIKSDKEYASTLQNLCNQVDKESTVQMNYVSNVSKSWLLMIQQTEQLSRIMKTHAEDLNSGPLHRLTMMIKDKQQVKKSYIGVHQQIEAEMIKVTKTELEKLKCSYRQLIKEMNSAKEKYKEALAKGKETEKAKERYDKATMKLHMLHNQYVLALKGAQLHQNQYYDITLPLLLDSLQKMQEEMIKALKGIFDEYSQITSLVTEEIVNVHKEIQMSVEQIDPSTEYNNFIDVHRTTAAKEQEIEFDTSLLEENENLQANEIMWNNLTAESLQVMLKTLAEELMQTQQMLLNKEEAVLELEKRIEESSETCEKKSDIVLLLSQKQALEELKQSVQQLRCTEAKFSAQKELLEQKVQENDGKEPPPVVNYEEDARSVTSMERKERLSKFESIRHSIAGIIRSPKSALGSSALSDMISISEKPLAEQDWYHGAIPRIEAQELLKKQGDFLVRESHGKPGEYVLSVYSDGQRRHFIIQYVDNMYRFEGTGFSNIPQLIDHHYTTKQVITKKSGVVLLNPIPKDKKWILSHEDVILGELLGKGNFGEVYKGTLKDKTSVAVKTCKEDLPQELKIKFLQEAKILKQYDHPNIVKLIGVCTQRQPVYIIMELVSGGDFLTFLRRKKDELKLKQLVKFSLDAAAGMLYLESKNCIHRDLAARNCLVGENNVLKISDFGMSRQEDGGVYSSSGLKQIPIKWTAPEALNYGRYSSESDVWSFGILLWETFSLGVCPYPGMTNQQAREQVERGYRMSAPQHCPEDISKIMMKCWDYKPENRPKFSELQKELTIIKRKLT

Serine/threonine-protein kinase PLK1 (Homo sapiens), sequence (P53350 whole entry, the tested form may be a part): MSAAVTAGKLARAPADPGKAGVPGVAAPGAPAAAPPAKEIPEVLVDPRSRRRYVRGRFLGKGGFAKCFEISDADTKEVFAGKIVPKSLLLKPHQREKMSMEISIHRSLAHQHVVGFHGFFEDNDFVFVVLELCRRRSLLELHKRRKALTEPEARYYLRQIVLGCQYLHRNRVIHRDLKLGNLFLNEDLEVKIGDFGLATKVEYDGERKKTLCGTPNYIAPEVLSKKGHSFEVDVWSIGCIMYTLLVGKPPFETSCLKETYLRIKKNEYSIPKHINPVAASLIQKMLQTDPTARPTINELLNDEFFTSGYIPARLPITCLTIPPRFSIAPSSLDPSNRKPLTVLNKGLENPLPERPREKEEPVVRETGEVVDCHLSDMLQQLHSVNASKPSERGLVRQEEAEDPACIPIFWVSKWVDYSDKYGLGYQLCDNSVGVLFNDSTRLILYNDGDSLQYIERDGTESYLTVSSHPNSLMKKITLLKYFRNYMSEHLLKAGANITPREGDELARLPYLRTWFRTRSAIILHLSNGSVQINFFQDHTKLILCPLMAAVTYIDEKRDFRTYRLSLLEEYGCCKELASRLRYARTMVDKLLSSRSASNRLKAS
Glycogen synthase kinase-3 beta (Homo sapiens), sequence (P49841 whole entry, looked up, the tested form may be a part): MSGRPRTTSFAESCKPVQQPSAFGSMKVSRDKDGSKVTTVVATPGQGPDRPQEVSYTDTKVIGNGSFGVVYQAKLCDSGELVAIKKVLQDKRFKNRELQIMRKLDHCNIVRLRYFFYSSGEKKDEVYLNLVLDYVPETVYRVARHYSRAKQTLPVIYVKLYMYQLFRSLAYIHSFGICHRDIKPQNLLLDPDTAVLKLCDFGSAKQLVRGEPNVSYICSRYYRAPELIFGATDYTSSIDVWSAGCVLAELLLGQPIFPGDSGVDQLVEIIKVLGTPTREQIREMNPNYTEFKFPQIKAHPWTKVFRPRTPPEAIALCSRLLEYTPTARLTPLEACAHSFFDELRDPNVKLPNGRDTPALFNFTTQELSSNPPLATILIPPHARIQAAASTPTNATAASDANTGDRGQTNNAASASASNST
Vascular endothelial growth factor receptor 1 (Homo sapiens), sequence (P17948 whole entry, the tested form may be a part): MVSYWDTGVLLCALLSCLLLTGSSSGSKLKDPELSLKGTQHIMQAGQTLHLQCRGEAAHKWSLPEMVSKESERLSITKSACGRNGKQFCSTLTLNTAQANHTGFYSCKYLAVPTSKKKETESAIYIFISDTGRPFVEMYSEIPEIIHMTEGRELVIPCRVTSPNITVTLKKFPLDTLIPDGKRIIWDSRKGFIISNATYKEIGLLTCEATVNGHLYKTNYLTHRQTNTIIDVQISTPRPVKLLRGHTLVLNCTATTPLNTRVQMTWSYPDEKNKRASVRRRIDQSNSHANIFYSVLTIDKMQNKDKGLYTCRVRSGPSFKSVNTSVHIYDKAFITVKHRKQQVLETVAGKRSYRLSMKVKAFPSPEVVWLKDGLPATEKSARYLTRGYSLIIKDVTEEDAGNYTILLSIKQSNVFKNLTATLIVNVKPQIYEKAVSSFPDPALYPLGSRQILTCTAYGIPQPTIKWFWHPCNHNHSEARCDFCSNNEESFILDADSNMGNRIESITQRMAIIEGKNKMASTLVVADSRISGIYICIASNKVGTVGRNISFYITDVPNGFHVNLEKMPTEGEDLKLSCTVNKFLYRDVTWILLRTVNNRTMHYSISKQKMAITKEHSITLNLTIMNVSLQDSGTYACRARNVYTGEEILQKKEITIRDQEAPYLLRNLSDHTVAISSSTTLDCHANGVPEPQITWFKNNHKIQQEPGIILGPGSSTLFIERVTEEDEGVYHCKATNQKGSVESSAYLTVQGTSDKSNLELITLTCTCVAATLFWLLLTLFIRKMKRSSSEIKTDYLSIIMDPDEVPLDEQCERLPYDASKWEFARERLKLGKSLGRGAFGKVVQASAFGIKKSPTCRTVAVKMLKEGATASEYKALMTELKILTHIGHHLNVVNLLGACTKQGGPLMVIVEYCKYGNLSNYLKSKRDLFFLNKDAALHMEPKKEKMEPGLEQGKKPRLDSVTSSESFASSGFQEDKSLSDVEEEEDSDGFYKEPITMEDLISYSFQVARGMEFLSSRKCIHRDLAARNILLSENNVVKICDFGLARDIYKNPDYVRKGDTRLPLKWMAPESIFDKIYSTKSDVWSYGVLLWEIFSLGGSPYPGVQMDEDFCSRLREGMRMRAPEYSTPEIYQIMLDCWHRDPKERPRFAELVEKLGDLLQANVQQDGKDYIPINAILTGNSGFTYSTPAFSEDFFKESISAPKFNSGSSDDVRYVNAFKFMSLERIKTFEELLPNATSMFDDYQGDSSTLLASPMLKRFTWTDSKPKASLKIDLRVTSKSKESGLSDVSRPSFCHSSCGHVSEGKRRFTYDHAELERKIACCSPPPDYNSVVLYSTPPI
Mitogen-activated protein kinase 8 (Homo sapiens), sequence (P45983 whole entry): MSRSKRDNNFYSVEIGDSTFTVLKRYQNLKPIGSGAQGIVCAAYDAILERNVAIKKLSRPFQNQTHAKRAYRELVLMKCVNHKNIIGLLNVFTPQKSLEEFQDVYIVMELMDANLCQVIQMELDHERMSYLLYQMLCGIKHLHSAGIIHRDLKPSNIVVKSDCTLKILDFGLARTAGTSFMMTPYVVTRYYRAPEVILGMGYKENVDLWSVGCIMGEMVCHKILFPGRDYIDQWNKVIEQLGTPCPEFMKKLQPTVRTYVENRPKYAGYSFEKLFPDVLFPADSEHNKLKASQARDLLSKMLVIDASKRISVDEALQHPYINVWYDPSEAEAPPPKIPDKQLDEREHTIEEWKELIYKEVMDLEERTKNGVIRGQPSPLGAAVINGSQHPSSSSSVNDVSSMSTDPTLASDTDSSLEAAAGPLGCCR

SMILES	inhibition [1] [%]	inhibition [2] [%]	inhibition [3] [%]	inhibition [4] [%]	inhibition [5] [%]	inhibition [6] [%]	inhibition [7] [%]	inhibition [8] [%]	inhibition [9] [%]
C[C@@H](Nc1ncnc2oc(-c3ccc(NCCN4CCCCC4)cc3)cc12)c1ccccc1	5	-5	1	-1	17	11	6	4	4
C#Cc1cccc(Nc2ncnc3cc(OCCOC)c(OCCOC)cc23)c1	-10	-9		-8	11	14		-8	-1
C[C@@H](Nc1ncnc2oc(-c3ccc(NCCN(C)C)cc3)cc12)c1ccccc1	8	0	-2	3	17	8	1	4	6
